Data on 2 compounds can be found in paper PMC10095747, “Modulatory Effects of Atractylodin and β-Eudesmol on Human Cytochrome P450 Enzymes: Potential Drug-Drug Interactions” (Molecules, 2023).

The subject of series [1] is mCYP3A11. The series can be described thus: ex vivo mCYP3A11 activity in mouse liver microsomes (nifedipine oxidation). The settings on record: daily oral 100 mg/kg body weight. The source says: Phenacetin and nifedipine are substrates of CYP1A2 and CYP3A11, respectively. Both substrates are converted via the CYP enzyme to paracetamol and dehydronefedipine, respectively. The concentrations of paracetamol and dehydronefedipine were used to determine the activities of mCYP1A2 and mCYP3A11. The effects of atractylodin and β-eudesmol on mCYP1A2 and mCYP3A11 activities were, respectively, determined by measuring paracetamol (mCYP1A2-dependent metabolite) and dehydronifiedipine (mCYP3A11-dependent metabolite) concentrations.
Eight-week-old male ICR (Imprinting Control Region) mice weighing 35–40 g were used to investigate the modulatory effects of atractylodin and β-eudesmol on mCYP1A2 and mCYP3A11. The study protocol was approved by the Ethics Committee for Animal Research at Thammasat University (protocol number 016/2020). All animals were obtained from Nomura Siam International Co., Ltd. (Bangkok, Thailand). The animals were acclimatized for one week before the experiments. A total of 36 mice were allocated to three groups (i) control group (3 mice), (ii) atractylodin-treated group, and (iii) β-eudesmol-treated group. For atractylodin and β-eudesmol-treated groups, animals were fed with 100 mg/kg body weight of each compound for 1, 7, 14, and 21 (3 mice for each dose). Experiments were performed under the guidelines for the care and use of laboratory animals in a controlled environment of 12 h dark/light cycle, temperature 22 ± 2 °C, and relative humidity 30–70% at the Thammasat University Animal Center. Animals were observed daily for changes in signs and symptoms by a veterinarian. Mice were allowed access to the food pellets and water ad libitum.
Mouse liver samples were cut into small pieces, and the liver microsomes were prepared as described previously. The concentrations of proteins in the microsomes were determined using Pierce™ BCA Protein Assay Kit. mCYP1A2 and mCYP3A11 activities were evaluated based on phenacetin O-deethylation and nifedipine oxidation activities, respectively. The incubation mixture of 500 µL consisted of microsomes, substrate ([…]), and NADPH. […] The final organic solvent concentration in the incubation mixture was not higher than 1%. Each experiment was repeated three times (duplicated each). Determination of the concentrations of metabolites of mCYP1A2 (paracetamol) and mCYP3A11 (dehydronifedipine) in the reaction was performed using HPLC Agilent 1260 Infinity II with mobile gradient phase between methanol and distilled water at an initial ratio of 20:80 (v:v) and UV detection (240 nm). Calibration curves for both CYP450 activities were created over a concentration range of 1–50 µM. Oxidized nifedipine concentrations were determined using HPLC as follows: UV detection at 235 nm with an isocratic mobile phase consisting of methanol and distilled water (70:30, v:v). […] In each analytical batch, quality control (QC) samples were run in duplicate at low, medium, and high concentrations. Acceptance criteria were four out of six QC analyses falling within 100 ± 15% of the nominal values.

For series [2], the system named is hCYP1A2. Also noted: method as in PMID 35139770. The settings on record: ligand-binding difference spectroscopy; cited from earlier work.
The subject of series [3] is hCYP3A4. Also noted: method as in PMID 35139770. The settings on record: ligand-binding difference spectroscopy; cited from earlier work.
Series [4] has as its system hCYP2C9. Also on record: method as in PMID 35139770. The settings on record: ligand-binding difference spectroscopy; cited from earlier work.
Series [5] has as its system hCYP2C19. Also on record: method as in PMID 35139770. The settings on record: ligand-binding difference spectroscopy; cited from earlier work.
Series [6] has as its system all rCYP450s (rCYP1A2, rCYP2C9, rCYP2C19, rCYP2D6, rCYP3A4). The series can be described thus: luminogenic CYP450 inhibition assay, statement over all five rCYP450s. The source says: The luminescent cytochrome P450 assay was used to determine CYP450-mediated (CYP1A2, 2C9, 2C19, 2D6, and 3A4) metabolism of atractylodin and β-eudesmol. The assay consisted of each recombinant human CYP450 (rCYP450), control membranes lacking P450 activity, a luminogenic CYP450 substrate (luciferin-ME substrate for rCYP1A2, luciferin-H substrate for rCYP2C9, luciferin-H EGE substrate for rCYP2C19, luciferin-ME EGE substrate for rCYP2D6, and luciferin-IPA substrate for rCYP3A4), KPO4 buffer, luciferin free water, NADPH regeneration system, and a luciferin detection reagent. The rCYP450 enzymes were generated from a baculovirus-infected insect cell expression system. The concentrations of the recombinant CYPs used were 0.5 (rCYP1A2 and rCYP2C9), 0.25 (rCYP2C19 and rCYP2D6) or 0.2 (rCYP3A4) pmol (0.5μL) per reaction. […] A luciferin product was produced after adding 25 µL of NADPH Regeneration System (solution A, solution B, and luciferin-free water) and incubated at 37 °C for 10 (rCYP1A2 and rCYP3A4), 20 (rCYP2C19 and rCYP2C9) or 30 (rCYP2D6) minutes. The reaction was stopped and converted to a luminescent signal after adding Luciferin Detection Reagent (50 µL) and incubated at 25 °C for 20 min. The luminescence signals obtained were determined using a Varioskan® Flash microplate reader (Waltham, MA, USA). The magnitude of luminescence in all of the samples represented CYP450 activity. […]

Take `C=C1CCC[C@]2(C)CC[C@@H](C(C)(C)O)C[C@@H]12` [β-Eudesmol]: the “Dehydronifedipine concentration (mCYP3A11 activity)” value (“Dehydronifedipine concentration” below) is 6.90 µM in series [1] (1 day, control 6.70); 7.5 µM in series [1] (7 days, control 6.90); “significantly reduced” in series [1] (14 days, control 7.55, listed as β-eudesmol, 100 mg/kg); 4.00 µM in series [1] (14 days, control 7.55, listed as β‐eudesmol, 100 mg/kg); “significantly reduced” in series [1] (21 days, control 7.75, listed as β-eudesmol, 100 mg/kg); 3.20 µM in series [1] (21 days, control 7.75, listed as β‐eudesmol, 100 mg/kg). Moreover, in series [2], the “binding to hCYP1A2” value is given as “bound”. The “binding to hCYP3A4” value in series [3] is “bound”. Besides, in series [4], the “binding to hCYP2C9” value is on record as “not”. Besides, in series [5], the “binding to hCYP2C19” value is “not”.

In the case of `C/C=C/C#CC#C/C=C/c1ccco1` [Atractylodin], the “inhibitory effects on all rCYP450s (potency class)” value in series [6] is given as “weak (weak (IC50 ≥ 50 µM))”. In addition, the “Dehydronifedipine concentration” value in series [1] (1 day, control 6.70, 100 mg/kg) was “significant reduction”; in series [1] (1 day, control 6.70, listed as Atactylodin, 100 mg/kg), 5.35 µM; in series [1] (7 days, control 6.90, 100 mg/kg), “significant reduction”; in series [1] (7 days, control 6.90, listed as Atactylodin, 100 mg/kg), 5.20 µM; in series [1] (14 days, control 7.55, 100 mg/kg), “significant reduction”; in series [1] (14 days, control 7.55, listed as Atactylodin, 100 mg/kg), 6.10 µM. For the same compound, the “Dehydronifedipine concentration” value in series [1] (21 days, control 7.75, 100 mg/kg) is “significant reduction”; in series [1] (21 days, control 7.75, listed as Atactylodin, 100 mg/kg), 3.75 µM.
